Experimental findings from ChEMBL document CHEMBL4417636, “Small molecule inhibitors of pendrin ion exchange and pharmaceutical compositions” (2017) are described below.

For assay [1], the system named is Mus musculus. Kind of assay: Potentiation of 20 mg/kg, ip furosemide-induced acute diuretic action in CD1 mouse assessed as increase in urinary Na+ excretion at 10 mg/kg, ip measured at 3 hrs relative to control. Format: functional, organism-based.
Assay [2] has as its target T1, Solute carrier family 12 member 2 (Homo sapiens) (UniProt P55011).
T1 sequence (whole entry): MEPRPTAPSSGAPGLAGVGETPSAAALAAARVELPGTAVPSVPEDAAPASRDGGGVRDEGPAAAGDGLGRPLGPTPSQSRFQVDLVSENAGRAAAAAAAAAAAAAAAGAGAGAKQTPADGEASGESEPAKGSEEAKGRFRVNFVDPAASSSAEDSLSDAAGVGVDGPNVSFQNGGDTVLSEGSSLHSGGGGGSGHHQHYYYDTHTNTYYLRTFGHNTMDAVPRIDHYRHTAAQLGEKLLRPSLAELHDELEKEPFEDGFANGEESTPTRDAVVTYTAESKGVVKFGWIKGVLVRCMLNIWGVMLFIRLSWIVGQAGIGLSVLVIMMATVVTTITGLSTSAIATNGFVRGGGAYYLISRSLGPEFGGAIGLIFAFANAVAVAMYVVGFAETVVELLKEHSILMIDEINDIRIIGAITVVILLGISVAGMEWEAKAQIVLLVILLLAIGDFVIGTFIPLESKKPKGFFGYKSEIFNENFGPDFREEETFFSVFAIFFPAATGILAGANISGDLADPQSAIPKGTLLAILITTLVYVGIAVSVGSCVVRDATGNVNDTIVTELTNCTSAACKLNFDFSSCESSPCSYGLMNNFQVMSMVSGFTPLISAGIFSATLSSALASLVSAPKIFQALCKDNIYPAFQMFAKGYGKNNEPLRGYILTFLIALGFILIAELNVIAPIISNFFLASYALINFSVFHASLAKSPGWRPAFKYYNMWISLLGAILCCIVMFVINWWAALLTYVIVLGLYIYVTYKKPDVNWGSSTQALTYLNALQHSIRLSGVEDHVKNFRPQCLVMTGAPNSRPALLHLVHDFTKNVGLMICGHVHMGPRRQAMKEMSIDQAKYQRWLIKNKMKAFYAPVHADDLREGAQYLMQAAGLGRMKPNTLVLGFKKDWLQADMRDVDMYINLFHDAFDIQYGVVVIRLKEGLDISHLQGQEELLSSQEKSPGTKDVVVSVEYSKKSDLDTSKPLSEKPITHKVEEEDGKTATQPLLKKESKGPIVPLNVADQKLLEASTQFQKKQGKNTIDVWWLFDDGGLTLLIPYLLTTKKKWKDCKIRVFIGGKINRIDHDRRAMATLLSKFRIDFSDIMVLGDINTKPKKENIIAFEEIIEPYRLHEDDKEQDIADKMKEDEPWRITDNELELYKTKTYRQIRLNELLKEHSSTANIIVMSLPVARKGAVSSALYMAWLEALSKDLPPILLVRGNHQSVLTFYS
Kind of assay: Inhibition of human NKCC1 expressed in COS7 co-expressing EYFP-HIF assessed as effect on I(-) gradient at 25 uM by YFP-based fluorescence quenching assay.

In assay [3] the target is T2, Pendrin (Homo sapiens) (UniProt O43511).
T2 sequence (whole entry): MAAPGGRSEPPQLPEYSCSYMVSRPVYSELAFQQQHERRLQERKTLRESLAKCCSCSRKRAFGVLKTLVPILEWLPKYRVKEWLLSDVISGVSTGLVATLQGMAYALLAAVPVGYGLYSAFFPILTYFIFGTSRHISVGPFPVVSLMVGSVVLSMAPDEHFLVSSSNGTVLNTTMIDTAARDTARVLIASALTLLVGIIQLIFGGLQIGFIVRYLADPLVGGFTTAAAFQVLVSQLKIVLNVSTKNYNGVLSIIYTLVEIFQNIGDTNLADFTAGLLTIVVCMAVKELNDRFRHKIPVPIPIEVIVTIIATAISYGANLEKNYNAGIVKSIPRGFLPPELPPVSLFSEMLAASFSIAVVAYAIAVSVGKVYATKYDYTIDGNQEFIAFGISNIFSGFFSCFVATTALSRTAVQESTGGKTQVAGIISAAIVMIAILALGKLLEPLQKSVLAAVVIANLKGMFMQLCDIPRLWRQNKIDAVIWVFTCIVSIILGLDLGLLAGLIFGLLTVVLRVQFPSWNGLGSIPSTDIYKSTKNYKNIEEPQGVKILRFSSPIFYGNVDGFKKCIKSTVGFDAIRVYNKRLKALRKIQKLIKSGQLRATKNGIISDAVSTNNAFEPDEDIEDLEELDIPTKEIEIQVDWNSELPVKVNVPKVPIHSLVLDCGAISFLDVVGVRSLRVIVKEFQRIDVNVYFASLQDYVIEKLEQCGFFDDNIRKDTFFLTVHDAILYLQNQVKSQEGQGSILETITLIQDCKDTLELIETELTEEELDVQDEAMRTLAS
Kind of assay: Inhibition of pendrin in human bronchial CFBE assessed as increase in airway surface liquid depth at 25 uM by rhodamine B-dextran fluorescence based confocal microscopy (reference value: -16 um).

The target in assay [4] is Cystic fibrosis transmembrane conductance regulator (Homo sapiens) (UniProt P13569). The experiment in a line: Inhibition of CFTR in human bronchial epithelial cells assessed as effect on short-circuit current at 25 uM pre-incubated for 30 mins.
For assay [5], the species on record is Homo sapiens. Kind of assay: Effect on airway surface liquid depth in NHBE cells at 25 uM by rhodamine B-dextran fluorescence based confocal microscopy. Format: functional, cell-based.
Assay [6] deals with T1, Solute carrier family 12 member 2 (Homo sapiens). The experiment in a line: Inhibition of NKCC1 in human bronchial epithelial cells assessed as effect on short-circuit current at 25 uM pre-incubated for 30 mins.
Assay [7] has as its target T2, Pendrin (Homo sapiens). The experiment in a line: Inhibition of pendrin in IL13-stimulated human CFBE assessed as reduction in gluconate gradient-induced intracellular alkalization at 25 uM. Format: cell-based.
Assay [8] is filed under the species Homo sapiens. Kind of assay: Effect on airway surface liquid pH in NHBE cells at 25 uM by pH-sensitive fluorophore BCECF based fluorescence based assay. Format: functional, cell-based.

Active and inactive are the calls of the source. The rule behind the calls is not given here.

Cystic fibrosis transmembrane conductance regulator (Homo sapiens), sequence (P13569 whole entry, looked up): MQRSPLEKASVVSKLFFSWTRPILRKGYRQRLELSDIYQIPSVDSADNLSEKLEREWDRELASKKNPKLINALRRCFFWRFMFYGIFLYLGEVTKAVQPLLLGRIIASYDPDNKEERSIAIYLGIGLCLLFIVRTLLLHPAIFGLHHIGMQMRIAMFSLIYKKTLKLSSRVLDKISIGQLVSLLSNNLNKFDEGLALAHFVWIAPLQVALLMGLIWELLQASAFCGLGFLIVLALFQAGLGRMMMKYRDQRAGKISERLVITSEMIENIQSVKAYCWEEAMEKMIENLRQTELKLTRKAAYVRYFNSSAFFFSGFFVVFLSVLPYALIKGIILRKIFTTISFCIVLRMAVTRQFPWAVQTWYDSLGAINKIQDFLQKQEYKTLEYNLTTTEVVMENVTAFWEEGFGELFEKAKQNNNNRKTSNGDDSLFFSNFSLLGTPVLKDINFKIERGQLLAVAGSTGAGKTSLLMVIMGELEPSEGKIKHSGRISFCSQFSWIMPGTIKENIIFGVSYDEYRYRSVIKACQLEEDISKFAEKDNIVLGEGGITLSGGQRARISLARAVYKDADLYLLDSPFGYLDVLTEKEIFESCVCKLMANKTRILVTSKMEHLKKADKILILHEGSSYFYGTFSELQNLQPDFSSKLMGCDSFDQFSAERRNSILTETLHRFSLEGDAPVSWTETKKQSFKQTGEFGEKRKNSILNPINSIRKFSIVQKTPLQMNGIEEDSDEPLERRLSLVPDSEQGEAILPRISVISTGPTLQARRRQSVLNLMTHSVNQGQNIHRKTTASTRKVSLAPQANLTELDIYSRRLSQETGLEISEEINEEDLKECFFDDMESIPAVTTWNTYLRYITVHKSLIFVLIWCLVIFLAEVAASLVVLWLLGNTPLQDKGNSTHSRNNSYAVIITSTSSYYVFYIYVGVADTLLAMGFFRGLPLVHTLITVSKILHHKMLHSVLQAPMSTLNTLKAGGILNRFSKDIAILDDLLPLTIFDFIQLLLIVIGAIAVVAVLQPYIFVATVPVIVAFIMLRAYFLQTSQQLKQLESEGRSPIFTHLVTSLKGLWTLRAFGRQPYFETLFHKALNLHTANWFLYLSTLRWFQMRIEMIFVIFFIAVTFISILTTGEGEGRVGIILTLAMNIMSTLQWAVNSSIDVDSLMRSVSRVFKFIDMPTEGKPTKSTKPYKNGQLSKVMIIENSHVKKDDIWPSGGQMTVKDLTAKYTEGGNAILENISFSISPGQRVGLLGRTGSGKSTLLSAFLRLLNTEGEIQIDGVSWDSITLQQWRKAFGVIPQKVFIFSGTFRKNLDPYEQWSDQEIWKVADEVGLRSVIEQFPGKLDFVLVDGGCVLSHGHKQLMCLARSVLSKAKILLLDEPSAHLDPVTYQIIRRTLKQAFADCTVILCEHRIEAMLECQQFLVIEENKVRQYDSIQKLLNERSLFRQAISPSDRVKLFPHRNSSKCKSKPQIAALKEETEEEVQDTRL

Consider `Cc1n[nH]c(-c2cc(S(=O)(=O)NC3CCCc4ccccc43)c(C)s2)c1C` (stereo not drawn), for which, in assay [1], the result was Active. Moreover, in assay [2], the inhibition entry is “inactive”.
For `Cn1nc(COc2cccc(F)c2)c2c1CCN(C(=O)Nc1ccc(Cl)cc1)C2`, the Activity in assay [3] was -8 µm. Besides, the inhibition entry in assay [4] and in assay [6] was “inactive” each time. For the same compound, the outcome in assay [5] and in assay [8] was inactive. Moreover, the inhibition entry in assay [7] is “Active”.
